Test results taken from patent US11051515B2, “3-acyl-benzamides and their use as herbicides” (Bayer Aktiengesellschaft, priority 2017, dated 2021).

Key:
[1] = system: ALOMY; assay: Pre-emergence action against ALOMY; format: in vivo, Alopecurus myosuroides; details: dosage 320 g/ha, pre-emergence, scored visually after 3 weeks vs untreated controls, 100% = plants have died, 0% = like control plants
Summary of the method: (§1)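 Seeds sown in sandy loam in wood-fiber pots and covered with soil. Greenhouse growth; visual damage scored after 3 weeks versus untreated controls (100% = dead, 0% = like control).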

[2] = system: AVEFA; assay: Pre-emergence action against AVEFA; format: in vivo, Avena fatua; details: dosage 320 g/ha, scored visually after 3 weeks vs untreated controls
Summary of the method: as §1

[3] = system: CYPES; assay: Pre-emergence action against CYPES; format: in vivo, Cyperus esculentus; details: pre-emergence, dosage 320 g/ha, scored visually after 3 weeks vs untreated controls
Summary of the method: as §1

[4] = system: ECHCG; assay: Pre-emergence action against ECHCG; format: in vivo, Echinochloa crus-galli; details: pre-emergence, dosage 320 g/ha, scored visually after 3 weeks vs untreated controls
Summary of the method: as §1

[5] = system: LOLMU; assay: Pre-emergence action against LOLMU; format: in vivo, Lolium multiflorum; details: dosage 320 g/ha, scored visually after 3 weeks vs untreated controls
Summary of the method: as §1

[6] = system: SETVI; assay: Pre-emergence action against SETVI; format: in vivo, Setaria viridis; details: pre-emergence, dosage 320 g/ha, scored visually after 3 weeks vs untreated controls
Summary of the method: as §1

[7] = system: ABUTH; assay: Pre-emergence action against ABUTH; format: in vivo, Abutilon theophrasti; details: pre-emergence, dosage 320 g/ha, scored visually after 3 weeks vs untreated controls
Summary of the method: as §1

[8] = system: AMARE; assay: Pre-emergence action against AMARE; format: in vivo, Amaranthus retroflexus; details: pre-emergence, dosage 320 g/ha, scored visually after 3 weeks vs untreated controls
Summary of the method: as §1

[9] = system: MATIN; assay: Pre-emergence action against MATIN; format: in vivo, Matricaria inodora; details: Dosage 320 g/ha, pre-emergence
Summary of the method: as §1

[10] = system: POLCO; assay: Pre-emergence action against POLCO; format: in vivo, Polygonum convolvulus; details: Dosage 320 g/ha, pre-emergence
Summary of the method: as §1

[11] = system: STEME; assay: Pre-emergence action against STEME; format: in vivo, Stellaria media; details: Dosage 320 g/ha, pre-emergence
Summary of the method: as §1

[12] = system: VIOTR; assay: Pre-emergence action against VIOTR; format: in vivo, Viola tricolor; details: Dosage 320 g/ha, pre-emergence
Summary of the method: as §1

[13] = system: VERPE; assay: Pre-emergence action against VERPE; format: in vivo, Veronica persica; details: Dosage 320 g/ha, pre-emergence
Summary of the method: as §1

[14] = system: ALOMY; assay: Post-emergence action against ALOMY; format: in vivo, Alopecurus myosuroides; details: Dosage 80 g/ha, post-emergence
Summary of the method: (§2)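 Weeds grown in sandy loam in greenhouse, treated at one-leaf stage (2–3 weeks after sowing) with WP or EC formulations sprayed as aqueous suspension/emulsion at 600 to […] water with 0.2% wetting agent. Visual rating after about 3 weeks versus untreated controls, as % herbicidal action (100% = plants dead, 0% = like control).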

[15] = system: AVEFA; assay: Post-emergence action against AVEFA; format: in vivo, Avena fatua; details: post-emergence, dosage 80 g/ha, visual assessment about 3 weeks after treatment vs untreated controls
Summary of the method: as §2

[16] = system: CYPES; assay: Post-emergence action against CYPES; format: in vivo, Cyperus esculentus; details: post-emergence, dosage 80 g/ha, visual assessment about 3 weeks after treatment vs untreated controls
Summary of the method: as §2

[17] = system: ECHCG; assay: Post-emergence action against ECHCG; format: in vivo, Echinochloa crus-galli; details: post-emergence, dosage 80 g/ha, visual assessment about 3 weeks after treatment vs untreated controls
Summary of the method: as §2

[18] = system: LOLMU; assay: Post-emergence action against LOLMU; format: in vivo, Lolium multiflorum; details: dosage 80 g/ha, visual assessment about 3 weeks after treatment vs untreated controls
Summary of the method: as §2

[19] = system: SETVI; assay: Post-emergence action against SETVI; format: in vivo, Setaria viridis; details: post-emergence, dosage 80 g/ha, visual assessment about 3 weeks after treatment vs untreated controls
Summary of the method: as §2

[20] = system: ABUTH; assay: Post-emergence action against ABUTH; format: in vivo, Abutilon theophrasti; details: post-emergence, dosage 80 g/ha, visual assessment about 3 weeks after treatment vs untreated controls
Summary of the method: as §2

[21] = system: MATIN; assay: Post-emergence action against MATIN; format: in vivo, Matricaria inodora; details: post-emergence, dosage 80 g/ha, visual assessment about 3 weeks after treatment vs untreated controls
Summary of the method: as §2

[22] = system: PHBPU; assay: Post-emergence action against PHBPU; format: in vivo, Pharbitis purpurea; details: post-emergence, dosage 80 g/ha
Summary of the method: as §2

[23] = system: POLCO; assay: Post-emergence action against POLCO; format: in vivo, Polygonum convolvulus; details: post-emergence, dosage 80 g/ha
Summary of the method: as §2

[24] = system: STEME; assay: Post-emergence action against STEME; format: in vivo, Stellaria media; details: post-emergence, dosage 80 g/ha
Summary of the method: as §2

[25] = system: VIOTR; assay: Post-emergence action against VIOTR; format: in vivo, Viola tricolor; details: post-emergence, dosage 80 g/ha
Summary of the method: as §2

[26] = system: VERPE; assay: Post-emergence action against VERPE; format: in vivo, Veronica persica; details: dosage 80 g/ha
Summary of the method: as §2

[27] = system: PHBPU; assay: Pre-emergence action against PHBPU; format: in vivo, Pharbitis purpurea; details: Dosage 320 g/ha, pre-emergence
Summary of the method: as §1

[28] = system: AMARE; assay: Post-emergence action against AMARE; format: in vivo, Amaranthus retroflexus; details: post-emergence, dosage 80 g/ha, visual assessment about 3 weeks after treatment vs untreated controls
Summary of the method: as §2

CC(=O)c1c(Cl)ccc(C(=O)Nc2nnnn2C)c1Cl [1-114]
80%: pest or weed control at 80 g/ha ([14]; Alopecurus myosuroides, 504 h) | pest or weed control at 80 g/ha ([16]; Cyperus esculentus, 504 h, read-out: Post-emergence action against CYPES (herbicidal action in percent)) | pest or weed control at 80 g/ha ([19]; Setaria viridis, 504 h, read-out: Post-emergence action against SETVI (herbicidal action in percent)) | pest or weed control at 80 g/ha ([20]; Abutilon theophrasti, 504 h, read-out: Post-emergence action against ABUTH (herbicidal action in percent)) | pest or weed control at 80 g/ha ([21]; Tripleurospermum inodorum, 504 h, read-out: Post-emergence action against MATIN (herbicidal action in percent))
100%: pest or weed control at 320 g/ha ([2]; Avena fatua, 504 h, read-out: Pre-emergence action against AVEFA (herbicidal activity)) | pest or weed control at 320 g/ha ([3]; Cyperus esculentus, 504 h, read-out: Pre-emergence action against CYPES (herbicidal activity)) | pest or weed control at 320 g/ha ([4]; Echinochloa crus-galli, 504 h, read-out: Pre-emergence action against ECHCG (herbicidal activity)) | pest or weed control at 320 g/ha ([5]; Lolium multiflorum, 504 h, read-out: Pre-emergence action against LOLMU (herbicidal activity)) | pest or weed control at 320 g/ha ([6]; Setaria viridis, 504 h, read-out: SETVI (Table B8, pre-emergence herbicidal activity)) | pest or weed control at 320 g/ha ([7]; Abutilon theophrasti, 504 h, read-out: Pre-emergence action against ABUTH (herbicidal activity)) | pest or weed control at 320 g/ha ([8]; Amaranthus retroflexus, 504 h, read-out: Pre-emergence action against AMARE (herbicidal activity)) | pest or weed control at 320 g/ha ([9]; Tripleurospermum inodorum, 504 h) | pest or weed control at 320 g/ha ([12]; Viola tricolor, 504 h) | pest or weed control at 320 g/ha ([13]; Veronica persica, 504 h) | pest or weed control at 80 g/ha ([18]; Lolium multiflorum, 504 h, read-out: Post-emergence action against LOLMU (herbicidal action in percent)) | pest or weed control at 80 g/ha ([24]; Stellaria media, 504 h) | pest or weed control at 80 g/ha ([26]; Veronica persica, 504 h)
90%: pest or weed control at 320 g/ha ([1]; Alopecurus myosuroides, 504 h, read-out: Pre-emergence action against ALOMY (herbicidal activity in percent)) | pest or weed control at 320 g/ha ([10]; Fallopia convolvulus, 504 h) | pest or weed control at 320 g/ha ([11]; Stellaria media, 504 h) | pest or weed control at 80 g/ha ([15]; Avena fatua, 504 h, read-out: Post-emergence action against AVEFA (herbicidal action in percent)) | pest or weed control at 80 g/ha ([17]; Echinochloa crus-galli, 504 h, read-out: Post-emergence action against ECHCG (herbicidal action in percent)) | pest or weed control at 80 g/ha ([22]; Ipomoea purpurea, 504 h) | pest or weed control at 80 g/ha ([23]; Fallopia convolvulus, 504 h) | pest or weed control at 80 g/ha ([25]; Viola tricolor, 504 h)

CCn1nnnc1NC(=O)c1ccc(Cl)c(C(=O)C2CC2)c1Cl [2-116]
80%: Post-emergence action against ALOMY [14] | Post-emergence action against CYPES (herbicidal action in percent) [16] | Post-emergence action against ABUTH (herbicidal action in percent) [20]
100: Post-emergence action against PHBPU [22] | Post-emergence action against VIOTR [25]
90%: Pre-emergence action against AVEFA (herbicidal activity) [2] | Pre-emergence action against CYPES (herbicidal activity) [3] | Pre-emergence action against PHBPU [27] | Pre-emergence action against POLCO [10] | Pre-emergence action against STEME [11] | Post-emergence action against AVEFA (herbicidal action in percent) [15] | Post-emergence action against ECHCG (herbicidal action in percent) [17] | Post-emergence action against LOLMU (herbicidal action in percent) [18] | Post-emergence action against SETVI (herbicidal action in percent) [19] | Post-emergence action against AMARE (herbicidal action in percent) [28] | Post-emergence action against MATIN (herbicidal action in percent) [21]
90: Post-emergence action against POLCO [23] | Post-emergence action against STEME [24] | Post-emergence action against VERPE [26]
100%: Pre-emergence action against ALOMY (herbicidal activity in percent) [1] | Pre-emergence action against ECHCG (herbicidal activity) [4] | Pre-emergence action against LOLMU (herbicidal activity) [5] | SETVI (Table B8, pre-emergence herbicidal activity) [6] | Pre-emergence action against ABUTH (herbicidal activity) [7] | Pre-emergence action against AMARE (herbicidal activity) [8] | Pre-emergence action against MATIN [9] | Pre-emergence action against VIOTR [12] | Pre-emergence action against VERPE [13]
